{"source": "patent US12258424B2", "about": "“Polypeptides and compositions comprising the same” (priority 2020, dated 2025)", "key": {"4T1 cancer cell": {"test_system": "4T1 cancer cell", "type": "cell-based, mouse"}, "[1]": {"target": "T1, recombinant human PD-L1 ECD protein (Homo sapiens, UniProt Q9NZQ7)", "T1 construct": "against the recombinant human PD-L1 ECD protein were evaluated using SPR; purchased G&P Biosciences FCL0784B", "T1 sequence (Q9NZQ7 19-238 limits assumed)": "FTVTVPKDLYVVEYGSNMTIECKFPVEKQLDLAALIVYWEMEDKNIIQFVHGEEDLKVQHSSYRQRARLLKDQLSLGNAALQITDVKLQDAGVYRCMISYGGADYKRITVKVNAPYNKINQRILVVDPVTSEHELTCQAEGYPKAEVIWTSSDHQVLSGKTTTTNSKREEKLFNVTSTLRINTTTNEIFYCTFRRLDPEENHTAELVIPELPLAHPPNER", "assay": "SPR binding kinetics and affinity to immobilized human PD-L1", "conditions": "read-out: Ka", "procedure": "In such aspects, the equilibrium dissociate constant KD value against recombinant human PD-L1 can be determined according to an KD to PD-L1 SPR Assay. The KD to PD-L1 SPR Assay can include the use of Surface Plasmon Resonance (SPR), such as the B14500, Biosensing Instrument, and can include the following procedures. The PD-L1 protein can be diluted to 10 μg/mL with sodium acetate buffer (pH 5.0, GE Healthcare, PA) and covalently coated onto a CM5 sensor chip (CM Dextran Sensor Chip, Biosensing Instrument) using the standard Amine Coupling Kit (GE Healthcare, PA). Approximately 6500 RU of PD-L1 protein are immobilized onto the chip. A second channel is used as a reference. HBS-EP+ buffer (GE Healthcare) can be employed at a flow rate of 60 μL/min. A series of concentrations of each peptide (15, 30, 60, 125, 250, 500, 1000, 5000 and 10,000 nM) is prepared in HBS-EP+ running buffer to obtain the equilibrium dissociation constant (KD) values of the peptides. The CM5 sensor chip can be regenerated with 10 mM NaOH for 20 s. The results can be analyzed using the software of Bi data analysis software.\nEvaluation of Binding Kinetics and Affinity By Surface Plasmon Resonance (SPR). Binding affinities of the PD-L1 specific peptides for human PD-L1 protein were determined by SPR (B14500, Biosensing Instrument). PD-L1 protein was diluted to 10 μg/mL with sodium acetate buffer (pH 5.0, GE Healthcare, PA) and covalently coated onto a CM5 sensor chip (CM Dextran Sensor Chip, Biosensing Instrument) using the standard Amine Coupling Kit (GE Healthcare, PA). Approximately 6500 RU of PD-L1 protein were immobilized onto the chip. A second channel was used as a reference. HBS-EP+ buffer (GE Healthcare) was employed at a flow rate of 60 μL/min. A series of concentrations of each peptide (15, 30, 60, 125, 250, 500, 1000, 5000 and 10,000 nM) were prepared in HBS-EP+ running buffer to obtain the equilibrium dissociation constant (KD) values of the peptides. The CM5 sensor chip was regenerated with 10 mM NaOH for 20 seconds. The results were analyzed using the software of Bi data analysis software. Binding affinities of the anti-PD-L1 peptides to BSA was also assessed following the procedure for human PD-L1."}, "[2]": {"test_system": "IFNγ, PD-L1 and IL-6 in CT26 tumors", "assay": "ELISA of IFNγ, PD-L1 and IL-6 in harvested CT26 tumors", "type": "in vivo, mouse", "from_the_text": "(§1) Animal Study. The animal protocol was approved by the University of Missouri-Kansas City, Institutional Animal Care and Use Committee (IACUC). Five-week old male and female Balb/c mice were purchased from Charles Rivers Laboratories (Wilmington, Mass.) and housed in a temperature and humidity controlled room on a 12-hour light-dark cycle. Approximately 5×10^5 CT26 cells were subcutaneously injected into the right flank. The mice were randomly divided into five different groups (10 mice/group, 50% female, 50% male). The mice were intraperitoneally injected with 2 mg/kg peptide daily when the tumor size reached 50-100 mm^3. The anti-mouse PD-L1 antibody (10F.9G2, BioXcell) was administrated as a positive control at a dose of 10 mg/kg every two days. The tumor size was assessed with a caliper and calculated with the formula 0.5×length×width^2. ELISA kits of PD-L1 (Cat #DY1019-05), IFNγ (Cat #DY485-05), and IL-6 (Cat #DY406-05) were used to measure the expressions of PD-L1, IFNγ, and IL-6, respectively, in tumors as per the company's instructions (R & D Systems, Minneapolis, MN)."}, "hPD-L1": {"target": "hPD-L1 (Homo sapiens, UniProt Q9NZQ7)", "sequence (Q9NZQ7 19-238 limits assumed)": "as above", "assay": "Blockade of the PD-1/PD-L1 interaction, plate coated with human PD-L1 protein", "type": "binding", "set-up": "PD-L1 protein (G&P Biosciences, human PD-L1 ECD, cat #FCL0784B); purchased G&P Biosciences FCL0784B (PD-L1)", "procedure": "(§2) Ninety-six-well plates were coated with 100 ng of PD-L1 protein (G&P Biosciences, human PD-L1 ECD, cat #FCL0784B. mouse PD-L1, cat #FCL3502B) and later blocked with 2% BSA for 2 hours at room temperature. Various concentrations of peptides were loaded into the wells and incubated for 1 hour at room temperature. […] Streptavidin-HRP (R & D systems) and chromogenic substrate were added into the wells. OD450 was then recorded and referenced to OD540."}, "[3]": {"test_system": "CT26 colorectal tumor-bearing mouse model", "assay": "Anti-tumor activity in CT26 tumor-bearing Balb/C mice", "type": "in vivo", "from_the_text": "as §1\nThe anti-mouse PD-L1 antibody (BioXcell, 10F.9G2) was administered intraperitoneally every other day at 10 mg/kg. […] In general, CLP002 (SEQ ID NO:2) exerted a better tumor inhibitory effect than CLP003 (SEQ ID NO:3), which was similar to the antibody. […] In FIG. 6e the weight of the tumors harvested at day 14 is shown. The results were represented as the mean±SD (n=10). It is noteworthy that the peptides were screened against the human PD-L1 protein, which, in fact, would compromise the anti-tumor activity of the peptides in a mouse model."}, "mPD-L1": {"target": "mPD-L1 (Mus musculus, UniProt Q9EP73)", "sequence (Q9EP73 19-239 limits assumed)": "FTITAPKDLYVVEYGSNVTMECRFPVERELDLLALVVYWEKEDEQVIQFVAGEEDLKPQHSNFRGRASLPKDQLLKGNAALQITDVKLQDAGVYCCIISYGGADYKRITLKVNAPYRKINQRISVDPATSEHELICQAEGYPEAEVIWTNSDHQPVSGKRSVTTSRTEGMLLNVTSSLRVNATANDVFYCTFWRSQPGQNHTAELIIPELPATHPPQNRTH", "assay": "Blockade of the mouse PD-1/PD-L1 interaction, mouse PD-L1 protein", "type": "binding", "set-up": "purchased G&P Biosciences FCL3502B (PD-L1)", "procedure": "as §2"}}, "note": "Values joined by “and” are separate entries in the source; they are usually repeats but may differ in a detail not shown here. Identical values can stand only once. Residues, ends and D or L forms follow the SMILES beside them."}
{"smiles": "CC(C)C[C@H](NC(=O)[C@H](CC(N)=O)NC(=O)[C@H](Cc1c[nH]c2ccccc12)NC(=O)[C@@H](NC(=O)[C@H](Cc1ccc(O)cc1)NC(=O)[C@H](Cc1ccc(O)cc1)NC(=O)[C@H](CO)NC(=O)[C@H](CCCNC(=N)N)NC(=O)[C@H](Cc1c[nH]cn1)NC(=O)[C@@H](N)Cc1c[nH]c2ccccc12)[C@@H](C)O)C(=O)N[C@@H](CC(N)=O)C(=O)N[C@H](C(=O)O)[C@@H](C)O", "note": "[CLP002] (H-WHRSYYTWNLNT-OH; N-terminus and C-terminus assumed)", "values": [{"measurement": "Blocking Efficiency (%)", "setting": "4T1 cancer cell; 4T1 cancer cell", "value": 61, "unit": "%"}, {"measurement": "IC50", "setting": "4T1 cancer cell; 2 h", "value": 2440, "unit": "nM"}, {"measurement": "kon", "setting": "[1]", "value": 4520, "unit": "M⁻¹ s⁻¹"}, {"measurement": "IL-6 expression in tumor tissues", "setting": "[2]", "value": "decreased expression of IL-6"}, {"measurement": "Blocking Efficiency (%)", "setting": "hPD-L1; human PD-L1 protein", "value": 85, "unit": "%"}, {"measurement": "Blocking of the human PD-1/PD-L1 interaction (in words)", "setting": "hPD-L1; peptides at 10 μM, FIG. 2c", "value": "highest blocking efficiency"}, {"measurement": "IC50", "setting": "hPD-L1; plate coated with human PD-L1 protein", "value": 2170, "unit": "nM"}, {"measurement": "Tumor growth", "setting": "[3]; peptides 2 mg/kg i.p. daily, antibody 10 mg/kg i.p. every other day", "value": "effectively suppressed tumor growth"}, {"measurement": "Tumor weights at day 14", "setting": "[3]; versus saline group", "value": "significantly smaller than the saline group"}, {"measurement": "Blocking efficiency against mouse PD-1/PD-L1 interaction", "setting": "mPD-L1; at 10 μM, FIG. 2f", "value": 71, "unit": "%"}, {"measurement": "Blocking Efficiency (%)", "setting": "mPD-L1; mouse PD-L1 protein", "value": "71% and 68%"}, {"measurement": "IC50", "setting": "mPD-L1; mouse PD-L1 protein", "value": 1910, "unit": "nM"}]}
